In PubChem BioAssay AID248 (DTP/NCI, 2004):
Values joined by “and” are separate entries in the source; they are usually repeats but may differ in a detail not shown here. Identical values can stand only once. Inconclusive results and toxic doses are left out.

Tested on: L1210 leukemia ip in BDF1 mice, survival T/C
Assay: NCI In Vivo Anticancer Drug Screen. Data for tumor model L1210 Leukemia (intraperitoneal) in B6D2F1 (BDF1) mice
Settings: endpoint: mean survival time, higher = longer survival
In short: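 Ratio derived from survival: compound-dosed mice over vehicle-dosed mice, all bearing a transplantable tumor.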

[1] = dose: 100.0 mg/kg/injection, schedule: Q01DX009 (ip), vehicle: saline with Tween-80
[2] = dose: 100.0 mg/kg/injection, schedule: Q04DX003 (ip), vehicle: saline with Tween-80
[3] = dose: 200.0 mg/kg/injection, schedule: Q01DX009 (ip), vehicle: saline with Tween-80
[4] = dose: 200.0 mg/kg/injection, schedule: Q04DX003 (ip), vehicle: saline with Tween-80
[5] = dose: 400.0 mg/kg/injection, schedule: Q01DX009 (ip), vehicle: saline with Tween-80
[6] = dose: 100.0 mg/kg/injection, schedule: Q01DX001 (ip), vehicle: saline
[7] = dose: 200.0 mg/kg/injection, schedule: Q01DX001 (ip), vehicle: saline
[8] = dose: 100.0 mg/kg/injection, schedule: Q01DX001 (ip), vehicle: carboxymethylcellulose (CMC)
[9] = dose: 200.0 mg/kg/injection, schedule: Q01DX001 (ip), vehicle: carboxymethylcellulose (CMC)
[10] = dose: 400.0 mg/kg/injection, schedule: Q01DX001 (ip), vehicle: carboxymethylcellulose (CMC)
[11] = dose: 100.0 mg/kg/injection, schedule: Q01DX009 (ip), vehicle: Klucel (hydroxypropylcellulose) (HPC)
[12] = dose: 200.0 mg/kg/injection, schedule: Q01DX009 (ip), vehicle: Klucel (hydroxypropylcellulose) (HPC)
[13] = dose: 200.0 mg/kg/injection, schedule: Q04DX003 (ip), vehicle: saline
[14] = dose: 100.0 mg/kg/injection, schedule: Q04DX002 (ip), vehicle: Klucel (hydroxypropylcellulose) (HPC)
[15] = dose: 200.0 mg/kg/injection, schedule: Q04DX002 (ip), vehicle: Klucel (hydroxypropylcellulose) (HPC)
[16] = dose: 400.0 mg/kg/injection, schedule: Q04DX002 (ip), vehicle: Klucel (hydroxypropylcellulose) (HPC)

c1ccc2cc(SCN3CCOCC3)ccc2c1
T/C (dose: 100.0 mg/kg/injection, schedule: Q04DX003 (ip), vehicle: Klucel (hydroxypropylcellulose) (HPC)): 97 % of control | T/C (dose: 200.0 mg/kg/injection, schedule: Q04DX003 (ip), vehicle: Klucel (hydroxypropylcellulose) (HPC)): 101 % of control | T/C (dose: 400.0 mg/kg/injection, schedule: Q04DX003 (ip), vehicle: Klucel (hydroxypropylcellulose) (HPC)): 97 % of control

COc1ccc(C)cc1NC(=O)Nc1cc(Cl)ccc1C
T/C (dose: 100.0 mg/kg/injection, schedule: Q01DX001 (ip), vehicle: saline with Tween-80): 93 % of control | T/C [1]: 95 % of control and 112 % of control | T/C (dose: 100.0 mg/kg/injection, schedule: Q04DX002 (ip), vehicle: saline with Tween-80): 102 % of control and 87 % of control | T/C [2]: 90 % of control | T/C (dose: 200.0 mg/kg/injection, schedule: Q01DX001 (ip), vehicle: saline with Tween-80): 93 % of control | T/C [3]: 102 % of control and 88 % of control | T/C (dose: 200.0 mg/kg/injection, schedule: Q04DX002 (ip), vehicle: saline with Tween-80): 87 % of control | T/C [4]: 101 % of control | T/C [5]: 93 % of control and 91 % of control | T/C (dose: 400.0 mg/kg/injection, schedule: Q04DX002 (ip), vehicle: saline with Tween-80): 95 % of control and 87 % of control | T/C (dose: 400.0 mg/kg/injection, schedule: Q04DX003 (ip), vehicle: saline with Tween-80): 94 % of control

COC(C(OC(C)=O)C(OC(C)=O)C(OC(C)=O)C(COC(C)=O)OC(C)=O)n1cc(C)c(=O)[nH]c1=O (stereo unspecified)
T/C (dose: 50.0 mg/kg/injection, schedule: Q01DX001 (ip), vehicle: saline): 103 % of control | T/C [6]: 97 % of control | T/C [7]: 95 % of control | T/C (dose: 400.0 mg/kg/injection, schedule: Q01DX001 (ip), vehicle: saline): 91 % of control

O=C(NP(=O)(N1CC1)N1CC1)OCCCCCCOC(=O)NP(=O)(N1CC1)N1CC1
T/C [8]: 101 % of control | T/C [9]: 113 % of control | T/C [10]: 108 % of control

Sc1ccc2ccccc2c1
T/C [11]: 94 % of control | T/C (dose: 100.0 mg/kg/injection, schedule: Q04DX003 (ip), vehicle: saline): 91 % of control | T/C [12]: 121 % of control | T/C [13]: 88 % of control | T/C (dose: 400.0 mg/kg/injection, schedule: Q01DX009 (ip), vehicle: Klucel (hydroxypropylcellulose) (HPC)): 110 % of control | T/C (dose: 400.0 mg/kg/injection, schedule: Q04DX003 (ip), vehicle: saline): 86 % of control

CCc1ccccc1N1CCN(C(=O)c2cc(OC)c(OC)c(OC)c2)CC1
T/C (dose: 25.0 mg/kg/injection, schedule: Q01DX009 (ip), vehicle: saline): 100 % of control | T/C (dose: 50.0 mg/kg/injection, schedule: Q01DX009 (ip), vehicle: saline): 102 % of control and 105 % of control | T/C (dose: 50.0 mg/kg/injection, schedule: Q01DX Z (ip), vehicle: carboxymethylcellulose (CMC)): 104 % of control | T/C (dose: 50.0 mg/kg/injection, schedule: Q04DX003 (ip), vehicle: acetone): 98 % of control | T/C (dose: 50.0 mg/kg/injection, schedule: Q04DX003 (ip), vehicle: saline): 94 % of control | T/C (dose: 74.0 mg/kg/injection, schedule: Q01DX009 (ip), vehicle: saline): 100 % of control | T/C (dose: 74.0 mg/kg/injection, schedule: Q01DX Z (ip), vehicle: carboxymethylcellulose (CMC)): 107 % of control | T/C (dose: 74.0 mg/kg/injection, schedule: Q04DX003 (ip), vehicle: saline): 92 % of control | T/C [6]: 100 % of control | T/C (dose: 100.0 mg/kg/injection, schedule: Q01DX009 (ip), vehicle: saline): 114 % of control | T/C (dose: 100.0 mg/kg/injection, schedule: Q04DX003 (ip), vehicle: acetone): 97 % of control | T/C (dose: 112.0 mg/kg/injection, schedule: Q01DX009 (ip), vehicle: saline): 97 % of control | T/C (dose: 112.0 mg/kg/injection, schedule: Q01DX Z (ip), vehicle: carboxymethylcellulose (CMC)): 102 % of control | T/C (dose: 112.0 mg/kg/injection, schedule: Q04DX003 (ip), vehicle: saline): 99 % of control | T/C (dose: 168.0 mg/kg/injection, schedule: Q01DX009 (ip), vehicle: saline): 108 % of control | T/C (dose: 168.0 mg/kg/injection, schedule: Q04DX003 (ip), vehicle: saline): 97 % of control and 99 % of control | T/C [7]: 103 % of control | T/C (dose: 200.0 mg/kg/injection, schedule: Q01DX009 (ip), vehicle: saline): 100 % of control | T/C [13]: 103 % of control | T/C (dose: 225.0 mg/kg/injection, schedule: Q01DX009 (ip), vehicle: saline): 97 % of control | T/C (dose: 250.0 mg/kg/injection, schedule: Q04DX003 (ip), vehicle: saline): 103 % of control

CSc1nc(-c2ccc([N+](=O)[O-])cc2)oc1/N=C/c1ccc([N+](=O)[O-])cc1
T/C [14]: 96 % of control | T/C [15]: 96 % of control | T/C [16]: 96 % of control

CC(CCc1ccccc1)C12CCC(CC1O)C2 (stereo unspecified)
T/C [14]: 96 % of control | T/C [15]: 110 % of control | T/C [16]: 96 % of control

Cc1ccc(S(=O)(=O)N2CCc3ccccc3C=C2Br)cc1
T/C [8]: 100 % of control | T/C [9]: 102 % of control | T/C [10]: 112 % of control

CCCCOC(=O)c1ccc(NC(=O)Nc2c(C)cccc2C)cc1
T/C (dose: 100.0 mg/kg/injection, schedule: Q01DX009 (ip), vehicle: other): 98 % of control | T/C (dose: 200.0 mg/kg/injection, schedule: Q01DX009 (ip), vehicle: other): 89 % of control | T/C (dose: 400.0 mg/kg/injection, schedule: Q01DX009 (ip), vehicle: other): 89 % of control

NC(Cc1ccc(N(CCCl)Cc2ccccc2)cc1)C(=O)O (stereo unspecified)
T/C (dose: 3.12 mg/kg/injection, schedule: Q01DX009 (ip), vehicle: distilled water + Tween-80): 97 % of control | T/C (dose: 6.25 mg/kg/injection, schedule: Q01DX009 (ip), vehicle: distilled water + Tween-80): 107 % of control | T/C (dose: 12.5 mg/kg/injection, schedule: Q01DX009 (ip), vehicle: distilled water + Tween-80): 96 % of control | T/C (dose: 25.0 mg/kg/injection, schedule: Q01DX009 (ip), vehicle: distilled water + Tween-80): 113 % of control | T/C (dose: 100.0 mg/kg/injection, schedule: Q01DX009 (ip), vehicle: distilled water + Tween-80): 97 % of control

CN1C2CNC(=O)CC1C1CCC2C1 (stereo unspecified)
T/C (dose: 25.0 mg/kg/injection, schedule: Q04DX002 (ip), vehicle: saline): 94 % of control | T/C (dose: 50.0 mg/kg/injection, schedule: Q04DX002 (ip), vehicle: saline): 102 % of control | T/C (dose: 75.0 mg/kg/injection, schedule: Q01DX001 (ip), vehicle: carboxymethylcellulose (CMC)): 106 % of control

O=C(Nc1c(Cl)c(Cl)c2c(c1Cl)Cc1cc(Cl)ccc1-2)C(Cl)Cl
T/C [8]: 101 % of control | T/C [9]: 101 % of control | T/C [10]: 106 % of control

CCCCOS(=O)(=O)c1ccc(N)cc1
T/C (dose: 50.0 mg/kg/injection, schedule: Q01DX009 (ip), vehicle: Klucel (hydroxypropylcellulose) (HPC)): 229 % of control | T/C [11]: 90 % of control | T/C [12]: 93 % of control

COc1ccc(Cl)cc1NC(=O)Oc1ccc(Br)cc1Br
T/C [1]: 94 % of control | T/C [3]: 104 % of control | T/C [5]: 99 % of control

CC(=O)OCC1OC(SP(C)C)C(OC(C)=O)C(OC(C)=O)C1OC(C)=O (stereo unspecified)
T/C (dose: 100.0 mg/kg/injection, schedule: Q01DX001 (ip), vehicle: Klucel (hydroxypropylcellulose) (HPC)): 101 % of control | T/C (dose: 200.0 mg/kg/injection, schedule: Q01DX001 (ip), vehicle: Klucel (hydroxypropylcellulose) (HPC)): 98 % of control | T/C (dose: 400.0 mg/kg/injection, schedule: Q01DX001 (ip), vehicle: Klucel (hydroxypropylcellulose) (HPC)): 96 % of control

CCOC(=O)CCC(C)(c1ccc(O)cc1)c1ccc(O)cc1
T/C (dose: 50.0 mg/kg/injection, schedule: Q01DX009 (ip), vehicle: saline with Tween-80): 98 % of control | T/C (dose: 50.0 mg/kg/injection, schedule: Q04DX003 (ip), vehicle: saline with Tween-80): 93 % of control | T/C [1]: 96 % of control | T/C [2]: 93 % of control | T/C [3]: 96 % of control | T/C [4]: 102 % of control

CC1(O)CC(=O)C2C3C=CC(C3)C21 (stereo unspecified)
T/C (dose: 75.0 mg/kg/injection, schedule: Q01DX001 (ip), vehicle: other): 98 % of control | T/C (dose: 150.0 mg/kg/injection, schedule: Q01DX001 (ip), vehicle: other): 104 % of control

Nc1ccc(NC(=O)Nc2ccccc2)cc1
T/C [14]: 101 % of control | T/C [15]: 90 % of control | T/C [16]: 101 % of control
